Assay results as given in patent US20110183978A1, “Phenylpyri(mi)dinylazoles” (Bayer CropScience AG, priority 2009, published 2011).

Experiments:
Leptosphaeria nodorum = assay: Example Q: in vivo test on Leptosphaeria nodorum (glume blotch in wheat/protective); conditions: Parastagonospora nodorum, 192 h, wheat, protective, assessment 8 days after inoculation, read-out: % Wirkungsgrad
Summary of the method: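 Protective test: young wheat plants sprayed with compound formulated in N,N-dimethylacetamide plus alkylaryl polyglycol ether emulsifier, diluted in water to the stated dose. After drying, plants inoculated with L. nodorum spore suspension; disease assessed 8 days post-inoculation.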

Venturia inaequalis = assay: Example O: in vivo test on Venturia inaequalis (apple scab/protective); conditions: 240 h, protective, assessment 10 days after inoculation, read-out: % Wirkungsgrad
Summary of the method: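 Protective test: active substance mixed with solvent and alkylaryl polyglycol ether emulsifier, diluted with water, and sprayed on young plants at the stated dosage before Venturia inaequalis inoculation. Scab assessed 10 days after inoculation.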

Sphaerotheca fuliginea [1] = assay: Example D: in vivo test on Sphaerotheca fuliginea (powdery mildew on cucumber); conditions: Podosphaera fuliginea, 288 h, cucumber plants sprayed 24 hours before inoculation, scored after 12 days, read-out: % Wirkungsgrad
Summary of the method: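 Cucumber plants at cotyledon stage Z10 were sprayed with the compound suspended in acetone/Tween/DMSO diluted with water. After 24 hours they were inoculated with Sphaerotheca fuliginea spores (100,000/ml) and incubated at ca. 20/25° C. and 60/70% RH. Disease was scored after 12 days against untreated sprayed controls.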

physchem = conditions: LogPA (logP of the stated pure compound or, in a mixture, of the main isomer, 1-substituted 3-aryl-1H-pyrazole)
Fusarium graminearum = assay: whole plant or invertebrate; format: in vivo; conditions: in Hordeum vulgare, 120 h, read-out: % Wirkungsgrad (activity level)
Cochliobolus miyabeanus = assay: Example X: in vivo test on Cochliobolus miyabeanus (brown spot disease, rice/protective); conditions: Bipolaris oryzae, 96 h, read-out: % Activity level
Plasmopara viticola = assay: Example N: in vivo test on Plasmopara viticola (downy mildew, vine/protective); conditions: 144 h, vine, protective, assessment 6 days after inoculation, read-out: % Wirkungsgrad
Summary of the method: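 Protective test: young vine plants were sprayed with active substance diluted in water from a solvent/alkylaryl polyglycol ether emulsifier concentrate at the stated dosage, then inoculated with P. viticola. Plants were moistened and kept 1 day in an incubation cabin, and assessed 6 days after inoculation.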

Alternaria solani = assay: Example M: in vivo test on Alternaria solani (leaf blotch disease/tomato/protective); conditions: 168 h, tomato, protective, 500 ppm active substance, assessed 7 days after inoculation, read-out: % Wirkungsgrad (activity level)
Summary of the method: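 Protective test: young tomato plants sprayed with active substance (in DMF with alkylaryl polyglycol ether emulsifier, diluted in water) at the stated dosage, then inoculated with Alternaria solani. Disease assessed 7 days after inoculation.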

Sphaerotheca fuliginea [2] = assay: Example L: in vivo test on Sphaerotheca fuliginea (powdery mildew on cucumber/protective); conditions: Podosphaera fuliginea, 168 h, cucumber, protective, assessment 7 days after inoculation, read-out: % Wirkungsgrad
Summary of the method: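 Young cucumber plants sprayed at stated dosage with compound in DMF/alkylaryl polyglycol ether emulsifier diluted in water; inoculated with S. fuliginea spores one day later. Kept in greenhouse at 70% relative humidity, 23° C; protective activity assessed 7 days after inoculation.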

Rhynchosporium secalis = assay: Example S: in vivo test on Rhynchosporium secalis (leaf scald in barley/protective); conditions: 336 h, barley, protective, 1000 ppm active substance, assessed 14 days after inoculation, read-out: % Wirkungsgrad (activity level)
Summary of the method: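 Protective test: young barley plants were sprayed with active substance in dimethylacetamide/alkylaryl polyglycol ether emulsion diluted with water. Once dry, plants were inoculated with R. secalis spore suspension. Assessment was made 14 days after inoculation.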

[3] = system: Mycosphaerella graminicola; assay: Example G: in vivo test on Mycosphaerella graminicola (wheat leaf blotch disease); conditions: Zymoseptoria tritici, wheat plants sprayed 24 hours before inoculation, scored after 21 to 28 days, read-out: % Wirkungsgrad
Summary of the method: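 Scipion wheat at first-leaf stage (10 cm) was sprayed with aqueous active-substance suspension, then inoculated 24 hours later with Mycosphaerella graminicola spores (500,000 spores per ml) from 7 day-old culture. Disease was scored after 21 to 28 days against untreated sprayed controls.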

In the case of CC(C)Cn1cc(-c2ccncc2)c(-c2ccc(F)cc2)n1 [Compound 1], the pest or weed control at 1000 ppm (Leptosphaeria nodorum) was 100%, the pest or weed control at 100 ppm (Venturia inaequalis) was 99% and the pest or weed control at 500 ppm (Sphaerotheca fuliginea [1]) was 100%. The chromatographic logP (physchem) was 1.63, the pest or weed control at 1000 ppm (Fusarium graminearum) was 100% and the pest or weed control at 250 ppm (Cochliobolus miyabeanus) was 85%. For the same molecule, the pest or weed control at 100 ppm (Plasmopara viticola) was 100%.

With CC(C)C(=O)Nc1cc(-c2cn(C(C)C)nc2-c2ccc(F)cc2)ccn1 [Compound 84] the pest or weed control at 1000 ppm (Leptosphaeria nodorum) was 100%, the pest or weed control at 500 ppm (Alternaria solani) was 95% and the pest or weed control at 100 ppm (Venturia inaequalis) was 100%. For the same molecule, the pest or weed control at 500 ppm (Sphaerotheca fuliginea [1]) was 100%, the pest or weed control at 500 ppm (Sphaerotheca fuliginea [2]) was 100% and the chromatographic logP (physchem) was 2.5. The pest or weed control at 1000 ppm (Rhynchosporium secalis) was 90%, the pest or weed control at 1000 ppm (Fusarium graminearum) was 100% and the pest or weed control at 250 ppm (Cochliobolus miyabeanus) was 93%. The pest or weed control at 100 ppm (Plasmopara viticola) was 98% and the pest or weed control at 500 ppm [3] was 98%.

CCC(=O)Nc1cc(-c2cn(C(C)C)nc2-c2ccc(F)cc2)ccn1 [Compound 85] showed a pest or weed control at 1000 ppm (Leptosphaeria nodorum) of 100%, a pest or weed control at 500 ppm (Alternaria solani) of 100% and a pest or weed control at 100 ppm (Venturia inaequalis) of 88%. For the same molecule, the pest or weed control at 500 ppm (Sphaerotheca fuliginea [1]) was 100%, the pest or weed control at 500 ppm (Sphaerotheca fuliginea [2]) was 100% and the chromatographic logP (physchem) was 2.15. It also gave a pest or weed control at 1000 ppm (Fusarium graminearum) of 100%, a pest or weed control at 250 ppm (Cochliobolus miyabeanus) of 90% and a pest or weed control at 100 ppm (Plasmopara viticola) of 94%.

Molecule CC(C)n1cc(-c2ccnc(NC(=O)C3CC3)c2)c(-c2ccc(F)cc2)n1 [Compound 86] has a pest or weed control at 1000 ppm (Leptosphaeria nodorum) of 100%, a pest or weed control at 100 ppm (Venturia inaequalis) of 96% and a pest or weed control at 500 ppm (Sphaerotheca fuliginea [1]) of 100%. The pest or weed control at 500 ppm (Sphaerotheca fuliginea [2]) was 100%, the chromatographic logP (physchem) was 2.07 and the pest or weed control at 1000 ppm (Rhynchosporium secalis) was 86%. It also gave a pest or weed control at 1000 ppm (Fusarium graminearum) of 100%, a pest or weed control at 250 ppm (Cochliobolus miyabeanus) of 80% and a pest or weed control at 100 ppm (Plasmopara viticola) of 84%. It also gave a pest or weed control at 500 ppm [3] of 94%.
